Biological target: T1, Human GPR120 short form (Homo sapiens, UniProt Q5NUL3)
T1 construct: expressed in transfected cells
T1 sequence (Q5NUL3 1-361): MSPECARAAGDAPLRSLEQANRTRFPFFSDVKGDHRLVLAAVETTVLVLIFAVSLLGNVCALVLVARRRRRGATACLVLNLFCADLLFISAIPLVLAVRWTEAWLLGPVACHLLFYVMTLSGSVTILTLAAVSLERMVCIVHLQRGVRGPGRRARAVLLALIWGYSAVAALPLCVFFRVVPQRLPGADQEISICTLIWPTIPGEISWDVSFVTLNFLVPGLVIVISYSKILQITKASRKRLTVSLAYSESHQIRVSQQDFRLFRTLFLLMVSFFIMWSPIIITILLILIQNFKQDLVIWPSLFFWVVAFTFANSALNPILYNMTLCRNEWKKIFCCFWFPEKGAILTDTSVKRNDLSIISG
Experiment: Human GPR120 calcium flux assay (FLIPR), Procedure Calcium A
Assay type: cell-based
Details: HEK-293 cells expressing human GPR120 short form, 2500 cells/well; read-out: GPR120 Ca2+ Assay A EC50
Text: This in vitro assay serves to assess test compound agonist activity against the short splice variant (SVS with Accession number NM_001195755.1 confirmed by sequencing data) of the GPR120 receptor. The Human Short splice variant #2 (NM_001195755.1) is missing an in-frame coding exon compared to variant 1 (the Human Long splice variant NM_181745.3), resulting in a shorter isoform (GPR120-S) lacking a 16 aa protein segment compared to isoform GPR120-L. The assay platform utilizes HEK-293 cells stably transfected to express the Human GPR120 short form. These cells are first loaded with the Ca^+2 sensitive dye, Fluo-4 NW. Upon stimulation, intracellular released Ca^+2 can bind to the dye and alter its fluorescence intensity. This increase in fluorescence signal, and thus the flux in intracellular [Ca^2+], is detected and quantitated by fluorescence imaging using a FLIPR reader. The effect of the agonist is measured as a function of concentration and used to calculate an EC50 based upon a response curve.
In this procedure 2500 cells/well were employed.
A Human GPR120 clone (Genbank accession number NM_001195755.1) was placed into the pcDNA3.1 mammalian expression vector carrying the neomycin resistance gene. A stable mammalian cell was generated by placing the above clone into a HEK293 background. Clonal cells responding to long chain fatty acids had expression levels of GPR120 confirmed by RT-qPCR. Human HEK-GPR120 cells were cultured in Dulbecco's Modified Eagle's Medium (DMEM)/F12 medium supplemented with 10% fetal bovine serum (FBS), 1% L-Glutamine and 1% penicillin/streptomycin and 0.5 mg/ml G-418. Cells were split 2 times a week to keep the cells in the log-phase growth.
In preparation for the assay, HEK cells stably transfected with Human GPR120 (2.5K cells per well in 25 uL growth medium) were seeded into 384-well plates and then incubated overnight (37° C., 5% CO2). The next day, the media was changed to 20 μL assay buffer and the cell starved for 1 h at 37° C. The dye loading solution (2× dye) was prepared using 10 mL assay buffer, 100 μL of 250 mM probenecid, 1 bottle of Component A, and 20 μl of dye in DMSO. Twenty μL of the 2× dye loading buffer was then added to each well. The plates were incubated at 37° C. for 30 min, then at room temperature for an additional 15 minutes, before performing the assay on FLIPR. Test compounds were prepared in assay buffer (2 uL of cpd+198 uL assay buffer, final DMSO in assay plate is 0.2%) at the desired concentration, more particularly at 100, 50, 25, 12.5, 6.25, 3.125, 1.562, 0.781, 0.391, 0.195, 0.098, 0.049, 0.024 and 0.012 μM.
The assay was performed on a FLIPR plate reader using the following parameters. Baseline was read for 10 seconds at 1 sec intervals. The program was set to transfer 10 μL of ligand from compound plate to cell plate after baseline reading. Aspiration was executed at: 10 μL/sec speed, 4.6 μL height; Dispensing was executed at: 30 μL/sec speed, 45 μL height. After compound addition, each well was read for 300 sec, with measurements collected at 1 sec intervals.
The kinetic data from the FLIPR was based upon a 5 minute window for data collection. The fluorescence of each sample well was used for individual calculations of a normalized RFU value, which was defined as maximum response minus the minimum response. The normalized fluorescence reading (RFU) was calculated as follows: RFU=Fmax−Fmin The data were fitted to a sigmoidal dose-response curve with a variable Hill slope (<2) using nonlinear regression with GraphPad Prism 5.0 to calculate the EC50 values. The Fitting Equation was: Y=Bottom+(Top−Bottom)/(1+10^((Log EC50−X)*HillSlope)), where X is the log of the concentration and Y is the response.

Compound	EC50 [nM]
CCc1ccc(-c2nsc(C(F)(F)F)c2COc2ccc(CCC(=O)O)c3ccccc23)cc1 [Cpd 130, 3-(4-[[3-(4-ethylphenyl)-5-(trifluoromethyl)-1,2-thiazol-4-yl]methoxy]naphthalen-1-yl)propanoic acid]	125
CCc1ccc(-c2nsc(C(F)(F)F)c2COc2ccc(CCC(=O)O)c3sccc23)cc1 [Cpd 92, 3-(4-[[3-(4-ethylphenyl)-5-(trifluoromethyl)-1,2-thiazol-4-yl]methoxy]-1-benzothiophen-7-yl)propanoic acid]	70
Cc1c(CCCO)ccc(OCc2sc(Cl)cc2-c2ccc(Cl)cc2)c1C [Cpd 15, 3-(4-[[5-chloro-3-(4-chlorophenyl)thiophen-2-yl]methoxy]-2,3-dimethylphenyl)propan-1-ol]	266
Cc1ccc(-c2snc(C(F)(F)F)c2COc2ccc(CCC(=O)O)c(C(F)(F)F)c2)c(C)c1 [Cpd 232, 3-(4-[[5-(2,4-dimethylphenyl)-3-(trifluoromethyl)-1,2-thiazol-4-yl]methoxy]-2-(trifluoromethyl)phenyl)propanoic acid]	1090
CCc1ccc(-c2nsc(C(F)(F)F)c2COc2ccc3c(c2)OCC3CCO)cc1 (stereo not drawn) [Cpd 220, 2-(6-[[3-(4-ethylphenyl)-5-(trifluoromethyl)-5H-1[3],2-thiazol-4-yl]methoxy]-2,3-dihydro-1-benzofuran-3-yl)ethan-1-ol]	702
Cc1c(CCC(=O)O)ccc(OCc2csnc2-c2ccc(Cl)s2)c1C [Cpd 204, 3-(4-((3-(5-chlorothiophen-2-yl)isothiazol-4-yl)methoxy)-2,3-dimethylphenyl)propanoic acid]	496
CCc1ccc(-c2sncc2COc2ccc(CCC(=O)O)c(C)c2C)cc1 [Cpd 158, 3-(4-[[5-(4-ethylphenyl)-1,2-thiazol-4-yl]methoxy]-2,3-dimethylphenyl)propanoic acid]	191
CCc1ccc(-c2nsc(CC)c2COc2ccc(CCC(=O)O)c(C)c2C)cc1 [Cpd 217, 3-(4-[[5-ethyl-3-(4-ethylphenyl)-1,2-thiazol-4-yl]methoxy]-2,3-dimethylphenyl)propanoic acid]	677
Cc1cc(OCc2c(-c3c(F)cc(Cl)cc3F)nsc2C(F)(F)F)c(F)cc1CCC(=O)O [Cpd 207, 3-(4-((3-(4-chloro-2,6-difluorophenyl)-5-(trifluoromethyl)isothiazol-4-yl)methoxy)-5-fluoro-2-methylphenyl)propanoic acid]	566
CCc1ccc(-c2snc(Cl)c2COc2c(F)cc(CCC(=O)O)cc2F)cc1 [Cpd 124, 3-(4-[[3-chloro-5-(4-ethylphenyl)-1,2-thiazol-4-yl]methoxy]-3,5-difluorophenyl)propanoic acid]	114
CCc1ccc(-c2nsc(C(C)(F)F)c2COc2ccc(CCC(=O)O)c(C)c2C)cc1 [Cpd 200, 3-(4-[[5-(1,1-difluoroethyl)-3-(4-ethylphenyl)-1,2-thiazol-4-yl]methoxy]-2,3-dimethylphenyl)propanoic acid]	453
Cc1ccc(-c2csc(C(F)(F)F)c2COc2c(F)cc(CCC(=O)O)cc2F)cn1 [Cpd 62, 3-(3,5-difluoro-4-((4-(6-methylpyridin-3-yl)-2-(trifluoromethyl)thiophen-3-yl)methoxy)phenyl)propanoic acid]	747
CCc1ccc(-c2nsc(C(F)(F)F)c2COc2ccc3c(c2)CCC3CC(=O)O)cc1 (stereo not drawn) [Cpd 176, 2-(5-[[3-(4-ethylphenyl)-5-(trifluoromethyl)-1,2-thiazol-4-yl]methoxy]-2,3-dihydro-1H-inden-1-yl)acetic acid]	261
CCCc1ccc(-c2snc(Cl)c2COc2ccc(CCC(=O)O)c(C)c2C)cc1 [Cpd 218, 3-(4-[[3-chloro-5-(4-propylphenyl)-1,2-thiazol-4-yl]methoxy]-2,3-dimethylphenyl)propanoic acid]	688
CCc1ccc(-c2cc(C(F)(F)F)sc2COc2c(F)cc(CCC(=O)O)cc2F)cc1 [Cpd 22, 3-(4-((3-(4-ethylphenyl)-5-(trifluoromethyl)thiophen-2-yl)methoxy)-3,5-difluorophenyl)propanoic acid]	924

From patent US9067898B1, “Isothiazole derivatives as GPR120 agonists for the treatment of type II diabetes” (Janssen Pharmaceutica NV, priority 2014, dated 2015)
